Experimental data reported in ChEMBL document CHEMBL1148744, “Synthesis and antiviral and cytostatic evaluations of the new C-5 substituted pyrimidine and furo[2,3-d]pyrimidine 4',5'-didehydro-L-ascorbic acid derivatives” (J Med Chem, 2007).
Values after ≈ are worked out from the molar mass of the structure shown.

Tested on: Vaccinia virus
Test: Antiviral activity against Vaccinia virus in HEL cells assessed as reduction of virus-induced cytopathogenicity
Assay type: functional
Settings: Orthopoxvirus vaccinia

Compound	MIC [µM]
Nc1nc2c(ncn2COC(CO)CO)c(=O)[nH]1 [GANCICLOVIR]	100 (≈ 25.5 µg/mL)
NC(=O)c1ncn([C@@H]2O[C@H](CO)[C@@H](O)[C@H]2O)n1 [RIBAVIRIN]	150 (≈ 36.6 µg/mL)
O=c1[nH]c(=O)n([C@H]2C[C@H](O)[C@@H](CO)O2)cc1/C=C/Br [BRIVUDINE]	2 (≈ 0.666 µg/mL)
Nc1nc2c(ncn2COCCO)c(=O)[nH]1 [ACYCLOVIR]	> 250
